In assay [1] the test system is Tt preQ1-I RNA wildtype (RNA, riboswitch) CUGGGUCGCAGUAACCCCAGUUAACAAAACAAG
In words: isothermal titration calorimetry. The following applies: 100 mM KCl, 2 mM MgCl2; 50 mM MES, pH 6.0, 20 °C. In general terms: ITC needs no label: the signal is the heat of the interaction.

Assay [2] concerns Tt preQ1-I RNA C15U (RNA, riboswitch) CUGGGUCGCAGUAAUCCCAGUUAACAAAACAAG
In words: isothermal titration calorimetry. The note with it: 100 mM KCl, 2 mM MgCl2; 50 mM MES, pH 6.0, 20 °C.

Assay [3] deals with Tt preQ1-I RNA wildtype (RNA, riboswitch) CUGGGUCGCAGUAACCCCAGUUAACAAAACAAG
In words: methylation kinetics, anion-exchange HPLC (kobs versus ligand concentration). The following applies: 100 mM KCl, 2 mM MgCl2; MES, pH 6.0, 37 °C; apparent Michaelis constant; ligand methylates C15 N3 (covalent methyl transfer).

Consider `NCc1c[nH]c2nc(N)[nH]c(=O)c12`, for which, in assay [1], the “Kd^ITC” value was 0.043 ± 0.0019 µM.
For `COc1nc(N)nc2[nH]cc(CN)c12`, the “Kd^ITC” value in assay [2] was 72.2 ± 2.1 µM. Besides, the “Km,app” value in assay [3] is ~ 230 μM.
